Test results published in paper PMC3618599 (Clinical cancer research : an official journal of the …, 2013).

Assays:
[1] = Vorinostat, VG and VA serum pharmacokinetics; assay type: in vivo, human; settings: for Change in Tmax, Cmax, and AUC0-8h: DSI schedule, day 1 or day 4, alvocidib escalated over 10–40 mg/m^2
[2] = system: patients with relapsed, refractory, or poor prognosis acute leukemia, or RAEB-2; assay: Phase I 3+3 dose escalation: DLT and MTD of alvocidib combined with vorinostat; assay type: in vivo, human
[3] = Alvocidib plasma pharmacokinetics; assay type: in vivo, human; settings: for Overall mean CL of alvocidib: initial dose, geometric mean ± SD
[4] = cited from earlier work
solid tumor patients = settings: cited from earlier work
[5] = days 2 and 16, 28-day cycles, with vorinostat 800 mg
[6] = vorinostat 200 mg orally with alvocidib

O=C(CCCCCCC(=O)Nc1ccccc1)NO[C@@H]1O[C@H](C(=O)O)[C@@H](O)[C@H](O)[C@H]1O [VG, vorinostat glucuronide]
Change in Tmax, Cmax, and AUC0-8h [1]: no change
AUC lower with 60 mg/m^2 compared to 40 mg/m^2 alvocidib dose ([1]; WLMI schedule): 50%
Cmax lower with 60 mg/m^2 compared to 40 mg/m^2 alvocidib dose ([1]; WLMI schedule): 50%

O=C(O)CCC(=O)Nc1ccccc1 [VA, 4-anilino-4-oxobutanoic acid]
Change in Tmax, Cmax, and AUC0-8h [1]: no change

CN1CC[C@H](c2c(O)cc(O)c3c(=O)cc(-c4ccccc4Cl)oc23)[C@H](O)C1 [alvocidib, flavopiridol]
MTD, alvocidib maintenance infusion ([2]; 4-h maintenance infusion, days 1 and 8 of 21-day cycle (WLMI), with vorinostat 200 mg orally TID days 1–14): 20 mg/m^2
MTD, alvocidib loading infusion ([2]; 30-min loading infusion, days 1 and 8 of 21-day cycle (WLMI), with vorinostat 200 mg orally TID days 1–14): 20 mg/m^2
Plasma concentration immediately before dosing on days 4 or 8 (accumulation) ([3]; daily and weekly infusion schedules, on average): < 1 % of the subsequent Cmax
Mean CL of alvocidib ([3]; day 4 dose, DSI schedule, after vorinostat 200 mg TID for 3 days): 9.9 ± 5.4 L/h/m^2
Mean CL of alvocidib ([3]; day 8 dose, WLMI schedule, after vorinostat 200 mg TID for 7 days): 11.0 ± 3.9 L/h/m^2
Overall mean CL of alvocidib ([3]; DSI schedule): 13.0 ± 4.8 L/h/m^2
Overall mean CL of alvocidib ([3]; WLMI schedule): 12.2 ± 5.3 L/h/m^2
Binding to plasma proteins [4]: highly bound
MTD, alvocidib given over 4 h (solid tumor patients; [5]): 30 mg/m^2
MTD, alvocidib initial 30 min infusion (solid tumor patients; [5]): 30 mg/m^2

O=C(CCCCCCC(=O)Nc1ccccc1)NO [vorinostat, Vorinostat]
MTD for this regimen, vorinostat ([2]; TID, with alvocidib WLMI 20/20 mg/m^2): 200 mg
Change in Tmax, Cmax, and AUC0-8h [1]: no change
Vorinostat AUC higher, WLMI compared to DSI schedule [1, 6]: 25–50%
Vorinostat Cmax higher, WLMI compared to DSI schedule [1, 6]: 25–50%
MTD, vorinostat (solid tumor patients; days 1–3 and 15–17, 28-day cycles, with alvocidib WLMI): 800 mg
